The values below come from ChEMBL document CHEMBL1136666, “Indanyl piperazines as melatonergic MT2 selective agents” (Bioorg Med Chem Lett, 2003).

SMILES strings stand for the structures.

One assay deals with Melatonin receptor type 1A (Homo sapiens, UniProt P48039). In words: In vitro receptor binding at MT1 (Melatonin) receptor.
Melatonin receptor type 1A, sequence (P48039 whole entry): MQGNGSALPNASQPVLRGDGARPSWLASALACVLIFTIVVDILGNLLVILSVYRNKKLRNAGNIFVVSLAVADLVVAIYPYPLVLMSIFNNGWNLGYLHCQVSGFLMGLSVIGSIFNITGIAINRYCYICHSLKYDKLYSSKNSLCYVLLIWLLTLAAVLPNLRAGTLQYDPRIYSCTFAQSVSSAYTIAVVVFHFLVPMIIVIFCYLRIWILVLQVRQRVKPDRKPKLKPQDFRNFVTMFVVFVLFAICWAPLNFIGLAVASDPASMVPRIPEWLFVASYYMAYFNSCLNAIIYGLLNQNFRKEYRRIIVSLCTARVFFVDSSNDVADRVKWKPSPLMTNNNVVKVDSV
For the compound `COc1ccc(F)c(CN2CCN(C(=O)C3CC3)CC2)c1`, the IC50 (as a rule, the midpoint of a concentration-inhibition curve) is over 1000 nM.

On to `COc1ccc2c(c1)C(N1CCN(C(=O)C(C)C)CC1)CC2` (stereo unspecified), for which the IC50 stood at 160 nM.

Regarding `CCC(=O)N1CCN(C2CCc3ccc(OC)cc32)CC1` (stereo unspecified), the IC50 was over 1000 nM.

Consider `COc1ccc(F)c(CN2CCN(C(=O)C(C)C)CC2)c1`, for which the IC50 is over 1000 nM.

Compound `CCCC(=O)N1CCN(C2CCc3ccc(OC)cc32)CC1` (stereo unspecified) gave an IC50 of over 1000 nM.

In turn, `COc1ccc2c(c1)[C@@H](N1CCN(C(=O)C(C)C)CC1)CC2` registered an IC50 of over 1000 nM.

`COc1ccc2c(c1)C(N1CCN(C(=O)C3CC3)CC1)CC2` (stereo unspecified) yielded an IC50 of 156 nM.

On to `COc1ccc2c(c1)[C@H](N1CCN(C(=O)C(C)C)CC1)CC2`, for which the IC50 was 116 nM.

With `COc1ccc(F)c(CN2CCN(C(C)=O)CC2)c1`, the IC50 was over 1000 nM.

In the case of `COc1ccc2cccc(N3CCN(C(=O)C4CC4)CC3)c2c1`, the IC50 is over 1000 nM.

As for `CCNC(=O)N1CCN(C2CCCc3ccc(OC)cc32)CC1` (stereo unspecified), the IC50 was over 1000 nM.

On to `CCNC(=O)N1CCN(c2cccc3ccc(OC)cc23)CC1`, for which the IC50 was over 1000 nM.

`COc1ccc2c(c1)[C@H](N1CCN(C(=O)C3CC3)CC1)CC2`: the IC50 was 44.5 nM.

The compound `CCNC(=O)N1CCN([C@H]2CCc3ccc(OC)cc32)CC1` displayed an IC50 of over 1000 nM.

In the case of `COc1ccc2c(c1)[C@@H](N1CCN(C(=O)C3CC3)CC1)CC2`, the IC50 is over 1000 nM.

Compound `COc1ccc2c(c1)C(N1CCN(C(=O)C3CC3)CC1)CCC2` (stereo unspecified) had an IC50 of over 1000 nM.

Turning to `COc1ccc2c(c1)C(N1CCN(C(C)=O)CC1)CC2` (stereo unspecified), the IC50 is over 1000 nM.

With `CCCCC(=O)N1CCN(C2CCc3ccc(OC)cc32)CC1` (stereo unspecified), the IC50 is over 1000 nM.

In turn, `CCNC(=O)N1CCN([C@@H]2CCc3ccc(OC)cc32)CC1` displayed an IC50 of 200 nM.

As for `CCNC(=O)N1CCN(C2CCc3ccc(OC)cc32)CC1` (stereo unspecified), the IC50 was over 1000 nM.

The target of a further assay is T1, Melatonin receptor type 1B (Homo sapiens, UniProt P49286).
T1 sequence (P49286 whole entry): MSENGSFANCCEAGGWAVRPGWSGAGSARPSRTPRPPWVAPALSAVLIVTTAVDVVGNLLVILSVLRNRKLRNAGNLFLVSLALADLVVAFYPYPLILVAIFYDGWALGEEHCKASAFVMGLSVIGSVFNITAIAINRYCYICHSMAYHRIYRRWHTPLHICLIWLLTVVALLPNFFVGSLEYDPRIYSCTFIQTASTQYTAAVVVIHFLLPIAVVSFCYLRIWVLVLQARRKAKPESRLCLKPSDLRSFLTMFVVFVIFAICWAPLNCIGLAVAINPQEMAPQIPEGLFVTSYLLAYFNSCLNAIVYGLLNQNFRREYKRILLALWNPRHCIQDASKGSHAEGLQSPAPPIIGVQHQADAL
In words: Effective concentration against human MT2 (Melatonin) receptor stably expressed in NIH3T3 cells in adenylyl cyclase assay. Type of assay: functional, cell-based.
Consider `CCNC(=O)N1CCN([C@@H]2CCc3ccc(OC)cc32)CC1`, for which the EC50 – broadly, the concentration at which the effect is half-maximal – was 2.4 nM.

The next assay addresses T1, Melatonin receptor type 1B. The experiment in a line: In vitro receptor binding at MT2 (Melatonin) receptor.
Consider `COc1ccc(F)c(CN2CCN(C(=O)C3CC3)CC2)c1`, for which the IC50 is 270 nM.

`COc1ccc2c(c1)C(N1CCN(C(=O)C(C)C)CC1)CC2` (stereo unspecified) registered an IC50 of 1.5 nM.

In turn, `CCC(=O)N1CCN(C2CCc3ccc(OC)cc32)CC1` (stereo unspecified) registered an IC50 of 32 nM.

On to `COc1ccc(F)c(CN2CCN(C(=O)C(C)C)CC2)c1`, for which the IC50 was 224 nM.

In turn, `CCCC(=O)N1CCN(C2CCc3ccc(OC)cc32)CC1` (stereo unspecified) had an IC50 of 2.3 nM.

With `COc1ccc2c(c1)[C@@H](N1CCN(C(=O)C(C)C)CC1)CC2`, the IC50 was over 1000 nM.

`COc1ccc2c(c1)C(N1CCN(C(=O)C3CC3)CC1)CC2` (stereo unspecified) came in with an IC50 of 3 nM.

Compound `COc1ccc2c(c1)[C@H](N1CCN(C(=O)C(C)C)CC1)CC2` had an IC50 of 1.5 nM.

Compound `COc1ccc(F)c(CN2CCN(C(C)=O)CC2)c1` displayed an IC50 of over 1000 nM.

Turning to `COc1ccc2cccc(N3CCN(C(=O)C4CC4)CC3)c2c1`, the IC50 came out at 90 nM.

`CCNC(=O)N1CCN(C2CCCc3ccc(OC)cc32)CC1` (stereo unspecified) displayed an IC50 of 94 nM.

Compound `CCNC(=O)N1CCN(c2cccc3ccc(OC)cc23)CC1` had an IC50 of over 1000 nM.

On to `COc1ccc2c(c1)[C@H](N1CCN(C(=O)C3CC3)CC1)CC2`, for which the IC50 amounted to 1.6 nM.

The compound `CCNC(=O)N1CCN([C@H]2CCc3ccc(OC)cc32)CC1` returned an IC50 of over 1000 nM.

The compound `COc1ccc2c(c1)[C@@H](N1CCN(C(=O)C3CC3)CC1)CC2` registered an IC50 of over 1000 nM.

`COc1ccc2c(c1)C(N1CCN(C(=O)C3CC3)CC1)CCC2` (stereo unspecified): the IC50 stood at 75 nM.

`COc1ccc2c(c1)C(N1CCN(C(C)=O)CC1)CC2` (stereo unspecified) had an IC50 of 44 nM.

`CCCCC(=O)N1CCN(C2CCc3ccc(OC)cc32)CC1` (stereo unspecified) returned an IC50 of 103 nM.

Regarding `CCNC(=O)N1CCN([C@@H]2CCc3ccc(OC)cc32)CC1`, the IC50 is 1.7 nM.

Consider `CCNC(=O)N1CCN(C2CCc3ccc(OC)cc32)CC1` (stereo unspecified), for which the IC50 worked out at 3.1 nM.
